“Also recorded” adds a separate entry of the source.
Assays:
NB4 cells [1] = experiment: NB4 cell differentiation (TPA-induced nitroblue tetrazolium reduction); format: cell-based, human
Procedure: NB4 cells were obtained from ATCC and were grown in RPMI-1640 (plus 2 mM L-glutamine) containing 100 […] penicillin and streptomycin and 8% fetal bovine serum (FBS). Cells were treated for four days with retinoid(s) or ethanol vehicle, then washed and resuspended at a density of 5×10^5 cells/ml. 50 microliter aliquots of this suspension were spread over poly-L-lysine coated slides (Sigma, St. Louis, Mo.). After washing with PBS (137 mM NaCl, 2.7 mM KCl, 4.3 mM Na2HPO4, 1.4 mM KH2PO4), the cells were fixed for 10 minutes in 2% formalin (37% formaldehyde in 15% methanol in water) at room temperature.
Following fixation, cells were washed three times in PBS and were scored by TPA (12-O-tetradecanoyl-phorbol-13-acetate, 200 ng/ml)-induced nitroblue tetrazolium reduction (Sigma Fast BCIP/NBT) for 30 minutes at 37° C. Samples were examined for cellular and nuclear morphology with an optical microscope (Diavert Leitz); the percentage of differentiated cells was determined by counting at least 300 cells for each treatment.

NB4 cells [2] = experiment: NB4 cell apoptosis (flow cytometry, DNA fragmentation); format: cell-based, human; details: retinoid alone
Procedure: The cell cycle distribution and presence of “sub-2N” cells and particles in control and retinoid-treated NB4 cells were determined by cell cycle flow cytometry based on DNA content, using an EPICS Profile II cell sorter (Coulter Electronics, Inc., Hialeah, Fla.) equipped with a 15 watt argon laser tuned to an excitation wavelength of 488 nm and filter sets providing an emission wavelength of 575 nm. Cultures of untreated or retinoid-treated cells were centrifuged (250×g) and fixed in 70% ethanol and stored at −20° C. Following two washes in PBS, the cells and subcellular particles were incubated in 1 mg/ml RNase A (59 Kunitz units/mg, Sigma Chemical Co., St. Louis, Mo.) for 30 minutes at 37° C., centrifuged and resuspended in PBS at a concentration of approximately 10^6 cells per ml. Ethidium bromide was added to a final concentration of 50 micrograms/ml immediately prior to sample analysis.
The induction of apoptosis by retinoids was also determined by the appearance of a “ladder” of fragmented DNA as previously described (Nagy, L., et al., Mol. Cell. Biol. 15:3540-3551 (1995)). Cells were refed with fresh media and retinoids every 2 days, and the cell density was maintained well below saturation in order to prevent cell death due to nutrient and/or mitogen depletion. Five micrograms per lane of DNA was electrophoresed in a 1.5% agarose gel, followed by staining with ethidium bromide, and DNA bands were visualized and photographed via ultraviolet illumination of ethidium bromide fluorescence.

F9 EC cells = details: ligand on its own, Roy et al. 1995; cited from earlier work
P19 cells = details: ligand on its own, Roy et al. 1995; cited from earlier work

Structure (SMILES): CC1(C)CCC(C)(C)c2cc(C3(c4ccc(C(=O)O)cc4)OCCO3)ccc21 [SR11237]
- Percentage of NB4 cells differentiated (NB4 cells [1]; retinoid alone at 1000 (concentration unit not given), 4 days): <2%
- Induction of NB4 cell differentiation (NB4 cells [1]; retinoid on its own): ineffective on their own; also recorded: did not induce differentiation
- Induction of NB4 cell apoptosis (NB4 cells [2]): inefficient alone
- Induction of differentiation and expression of RA target genes (F9 EC cells): unable to induce
- Induction of differentiation and expression of RA target genes (P19 cells): unable to induce

Source: patent US6653322B1, “Therapeutic combinations of RAR antagonists and RXR agonists and use thereof” (Bristol-Myers Squibb Company, priority 1996, dated 2003)
